We go through 38 compounds from patent US20230174523A1, “BENZENESULFONAMIDE DERIVATIVES AS TRAP1 MODULATORS AND USES THEREOF” (Amathus Therapeutics, Inc., priority 2020, published 2023).

The target in the test is T1, TRAP1 enzyme (Homo sapiens, UniProt Q12931).
T1 sequence (Q12931 60-704): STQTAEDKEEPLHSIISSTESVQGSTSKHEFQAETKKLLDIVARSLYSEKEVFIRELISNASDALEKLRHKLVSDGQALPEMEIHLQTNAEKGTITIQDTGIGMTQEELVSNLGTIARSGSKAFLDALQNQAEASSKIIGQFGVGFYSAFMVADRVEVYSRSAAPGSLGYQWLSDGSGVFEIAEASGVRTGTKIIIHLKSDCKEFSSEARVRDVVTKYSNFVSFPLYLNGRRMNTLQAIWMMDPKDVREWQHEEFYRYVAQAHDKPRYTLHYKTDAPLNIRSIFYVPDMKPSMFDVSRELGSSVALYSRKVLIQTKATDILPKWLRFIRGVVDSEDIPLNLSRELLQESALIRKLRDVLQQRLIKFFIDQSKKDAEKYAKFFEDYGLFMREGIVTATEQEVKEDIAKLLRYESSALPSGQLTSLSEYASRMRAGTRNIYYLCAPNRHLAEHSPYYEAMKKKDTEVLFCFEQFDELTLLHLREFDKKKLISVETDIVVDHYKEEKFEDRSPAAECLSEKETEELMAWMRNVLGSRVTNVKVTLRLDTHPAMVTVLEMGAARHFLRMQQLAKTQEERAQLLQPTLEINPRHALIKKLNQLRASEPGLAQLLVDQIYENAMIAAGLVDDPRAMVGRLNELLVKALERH
The experiment in a line: Malachite green phosphate assay of TRAP1 ATPase activity. The test is classed as biochemical. To be noted: for EC50: TRAP1 ATPase activation, 150 nM Trap1, 20 μM ATP, geometric mean, read-out: Malachite Green Fluor DRC: GeoMean EC50; for Emax: read-out: Malachite Green Fluor DRC: Mean Emax. The procedure:
The Potency of test compounds to modulate the ATPase activity of TRAP1 enzyme was evaluated using malachite green phosphatase assay. The assay is based on quantification of the green complex formed between Malachite Green, molybdate and inorganic phosphate generated in the phosphatase reaction. Assays were performed using a Malachite Green assay kit. All the assays were carried out in a 96-well transparent plate. The buffer used was 50 mM HEPES (pH 7.5), 20 mM KCl, 4 mM MgCl2 and 0.05% BSA. 150 nM Trap1 enzyme was incubated with various concentrations of the test compound (0.78 μM-100 μM) at 37° C. for 30 mins. 20 μM ATP was added to each well (except blank wells) to start the reaction and the plate was then incubated at 37° C. for 180 mins. 10 μl of the reaction volume of each sample was then transferred to a white 384-well proxiplate in quadruplets. 2.5 μl of Malachite Green reagent was added to all the wells and the plate was equilibrated for 15 mins. The reaction was stopped by adding 12% H2SO4 and the plate was read for fluorescence at 620 nm (λex=573 nm). The amount of phosphate released was estimated from a phosphate standard curve generated at the same experimental conditions. Emax (Maximal percent activation) and EC50 (concentration of test compound for half maximal activation) were estimated by fitting the dose response data to a sigmoidal curve fitting equation using Graphpad Prism software V.7.0.

Each structure is given as a SMILES string.

For the compound `CCc1ccc(NC(=O)c2ncc(-c3ccccc3)o2)cc1S(=O)(=O)Nc1ccc(Cl)nc1` [Compound 548], the EC50 – broadly, the concentration at which the effect is half-maximal – was below 10 µM and the Emax (in general, the greatest response seen or fitted, relative to the assay's reference) lay in the range of 123 to 159%.

Consider `O=C(Nc1cccc(S(=O)(=O)N2CCOc3cc(Cl)ccc32)c1)c1ncco1` [Compound 367], for which the EC50 fell in the range of 20 to 100 µM and the Emax is 200 to 300%.

On to `COc1ccc(NC(=O)c2cnc[nH]2)cc1S(=O)(=O)N(CCOCCOCC[P+](c1ccccc1)(c1ccccc1)c1ccccc1)c1ccc(Br)cc1` [Compound 296], for which the EC50 is below 10 µM and the Emax is 200 to 300%.

`COc1ccc(NC(=O)c2cnc(C(F)(F)F)[nH]2)cc1S(=O)(=O)N(CCCCCO)c1ccc(Br)cc1` [Compound 431, N-(3-(N-(4-bromophenyl)-N-(5-hydroxypentyl)sulfamoyl)-4-methoxyphenyl)-2-(trifluoromethyl)-1H-imidazole-5-carboxamide]: the EC50 is 20 to 100 µM and the Emax was above 300%.

As for `COc1ccc(NC(=O)c2ncco2)cc1S(=O)(=O)N(CCCCCC[P+](c1ccccc1)(c1ccccc1)c1ccccc1)c1ccc(Br)cc1` [Compound 259], the EC50 was below 10 µM and the Emax is above 300%.

With `COc1ccc(NC(=O)c2nc(Br)ccc2C)cc1S(=O)(=O)Nc1ccc(Cl)cc1` [Compound 537], the EC50 lay in the range of 10 to 20 µM and the Emax lay in the range of 200 to 300%.

Consider `CC1(C)CCN(S(=O)(=O)c2cccc(NC(=O)c3cnc(-c4ccccc4)[nH]3)c2)c2ccc(Cl)cc21` [Compound 534], for which the EC50 fell in the range of 20 to 100 µM and the Emax lay within 200 to 300%.

For `COc1ccc(NC(=O)c2cnc(C(F)(F)F)[nH]2)cc1S(=O)(=O)Nc1ccc(C)cc1` [Compound 224], the EC50 lay within 20 to 100 µM and the maximum response (Emax) was 123 to 159%.

Regarding `COc1ccc(NC(=O)c2ncco2)cc1S(=O)(=O)N(CCCCCCO)c1ccc(Br)cc1` [Compound 255], the EC50 fell in the range of 10 to 20 µM and the Emax was 160 to 199%.

For `COc1ccc(NC(=O)c2ncco2)cc1S(=O)(=O)N1CCOCC1` [Compound 309], the EC50 was 20 to 100 µM and the Emax fell in the range of 123 to 159%.

As to `COc1ccc(NC(=O)c2cccn2-c2ccccc2)cc1S(=O)(=O)Nc1c(C)cccc1C` [Compound 1042], the EC50 was below 10 µM and the Emax fell in the range of 160 to 199%.

Consider `CCc1ccc(NC(=O)c2cnc(C(F)(F)F)[nH]2)cc1S(=O)(=O)Nc1ccc(C)cc1` [Compound 270], for which the half-maximal effective concentration (EC50) is 10 to 20 µM and the Emax was in the range of 200 to 300%.

For `COc1ccc(NC(=O)c2cnc(C(F)(F)F)[nH]2)cc1S(=O)(=O)N(CCCCCC[P+](c1ccccc1)(c1ccccc1)c1ccccc1)c1ccc(Br)cc1` [Compound 260], the EC50 was below 10 µM and the Emax was in the range of 160 to 199%.

`COc1ccc(NC(=O)c2cnco2)cc1S(=O)(=O)Nc1ccc(Br)cc1` [Compound 91, N-(3-(N-(4-bromophenyl)sulfamoyl)-4-methoxyphenyl) oxazole-5-carboxamide]: the EC50 lay in the range of 20 to 100 µM and the Emax lay in the range of 160 to 199%.

Consider `O=C(Nc1cccc(S(=O)(=O)Nc2ccc(Br)cc2)c1)c1ncco1` [Compound 302], for which the EC50 was 20 to 100 µM and the Emax was in the range of 160 to 199%.

Regarding `COc1ccc(NC(=O)c2cnccc2C)cc1S(=O)(=O)Nc1ccccc1C` [Compound 64], the EC50 lay in the range of 20 to 100 µM and the Emax was 160 to 199%.

As to `COc1ccc(NC(=O)c2cnc(C(F)(F)F)[nH]2)cc1S(=O)(=O)N1Cc2cccc(F)c2C1` [Compound 225], the EC50 fell in the range of 10 to 20 µM and the Emax was in the range of 160 to 199%.

For the compound `O=C(Nc1ccc(CCO)c(S(=O)(=O)Nc2ccc(Br)cc2)c1)c1ncco1` [Compound 333, N-(3-(N-(4-bromophenyl)sulfamoyl)-4-(2-hydroxyethyl)phenyl) oxazole-2-carboxamide], the EC50 was 20 to 100 µM and the maximum response (Emax) was 160 to 199%.

Regarding `CCc1ccc(NC(=O)c2cnc(C(F)(F)F)[nH]2)cc1S(=O)(=O)Nc1ccc(Br)cc1` [Compound 216], the concentration for a half-maximal effect (EC50) is below 10 µM and the Emax fell in the range of 200 to 300%.

Turning to `COc1ccc(NC(=O)c2ccccc2C(F)(F)F)cc1S(=O)(=O)N1CCCCC1` [Compound 41], the EC50 lay within 10 to 20 µM and the Emax was in the range of 160 to 199%.

`COc1ccc(NC(=O)c2cnc(-c3ccccc3)o2)cc1S(=O)(=O)Nc1ccc(Br)cc1` [Compound 185]: the EC50 fell in the range of 10 to 20 µM and the maximum response (Emax) was in the range of 160 to 199%.

Consider `COc1ccc(NC(=O)c2cnc(C(F)(F)F)[nH]2)cc1S(=O)(=O)N(CCCCCC(=O)O)c1ccc(Br)cc1` [Compound 264], for which the EC50 fell in the range of 10 to 20 µM and the Emax lay within 160 to 199%.

Turning to `COc1ccc(NC(=O)c2nc(C(F)(F)F)cs2)cc1S(=O)(=O)Nc1ccc(Br)cc1` [Compound 370, N-(3-(N-(4-bromophenyl)sulfamoyl)-4-methoxyphenyl)-4-(trifluoromethyl) thiazole-2-carboxamide], the EC50 is 20 to 100 µM and the Emax lay in the range of 200 to 300%.

For `CCOC(=O)Cc1ccc(NC(=O)c2ncco2)cc1S(=O)(=O)Nc1ccc(Br)cc1` [Compound 332], the concentration for a half-maximal effect (EC50) fell in the range of 20 to 100 µM and the Emax lay in the range of 200 to 300%.

On to `O=C(Nc1ccc(F)c(S(=O)(=O)Nc2ccc(F)cc2)c1)c1ncco1` [Compound 314], for which the EC50 was in the range of 20 to 100 µM and the Emax fell in the range of 123 to 159%.

For the compound `Cc1ccc(NS(=O)(=O)c2cc(NC(=O)c3cnc(C(F)(F)F)[nH]3)ccc2F)cc1` [Compound 278], the EC50 lay in the range of 10 to 20 µM and the Emax lay within 160 to 199%.

For the compound `COc1ccc(NC(=O)c2cnc(-c3ccccc3)[nH]2)cc1S(=O)(=O)Nc1ccncc1` [Compound 213], the EC50 was in the range of 20 to 100 µM and the Emax lay in the range of 160 to 199%.

Consider `COc1ccc(NC(=O)c2cnc(C(F)(F)F)[nH]2)cc1S(=O)(=O)Nc1ccc(-c2ccccc2)cc1` [Compound 353], for which the EC50 lay within 20 to 100 µM and the Emax lay in the range of 200 to 300%.

Turning to `COc1ccc(NC(=O)c2cnc(-c3ccccc3)[nH]2)cc1S(=O)(=O)N(CCCCCC(=O)O)c1ccc(Br)cc1` [Compound 243, 6-((N-(4-bromophenyl)-2-methoxy-5-(2-phenyl-1H-imidazole-5-carboxamido)phenyl)sulfonamido) hexanoic acid], the EC50 lay in the range of 10 to 20 µM and the Emax was above 300%.

Take `COc1ccc(NC(=O)c2cnc(-c3ccccc3)[nH]2)cc1S(=O)(=O)N(CCCCCC[P+](c1ccccc1)(c1ccccc1)c1ccccc1)c1ccc(Br)cc1` [Compound 242]: the EC50 was below 10 µM and the Emax lay within 200 to 300%.

With `COc1ccc(NC(=O)c2cnc(C(F)(F)F)[nH]2)cc1S(=O)(=O)N(CCCCCCBr)c1ccc(Br)cc1` [Compound 262], the EC50 was in the range of 10 to 20 µM and the Emax lay within 200 to 300%.

As for `COc1ccc(NC(=O)c2ncc(-c3ccccc3)o2)cc1S(=O)(=O)Nc1ccc(Cl)cc1` [Compound 369], the EC50 is below 10 µM and the Emax was 160 to 199%.

Turning to `NCCCCCCOc1ccc(NC(=O)c2cnc[nH]2)cc1S(=O)(=O)Nc1ccc(Br)cc1` [Compound 356, N-(4-((6-aminohexyl)oxy)-3-(N-(4-bromophenyl)sulfamoyl)phenyl)-1H-imidazole-4-carboxamide], the EC50 is 20 to 100 µM and the Emax was 200 to 300%.

`CCc1ccc(NC(=O)c2nnc(-c3ccccc3)[nH]2)cc1S(=O)(=O)Nc1ccc(Cl)cc1` [Compound 595]: the EC50 was 10 to 20 µM and the Emax is 200 to 300%.

On to `COc1ccc(NC(=O)c2cnc(-c3ccccc3)o2)cc1S(=O)(=O)Nc1c(Cl)cccc1Cl` [Compound 662], for which the EC50 lay within 10 to 20 µM and the Emax lay in the range of 160 to 199%.

With `CCOC(=O)Cc1ccc(NC(=O)c2ncc(-c3ccccc3)o2)cc1S(=O)(=O)Nc1ccc(Cl)cc1` [Compound 558], the EC50 is 10 to 20 µM and the Emax lay within 160 to 199%.

Take `O=C(O)/C=C/c1ccc(NC(=O)c2ncc(-c3ccccc3)o2)cc1S(=O)(=O)Nc1ccc(Cl)cc1` [Compound 648]: the EC50 was below 10 µM and the Emax lay within 160 to 199%.

Turning to `O=C(Nc1ccc(F)c(S(=O)(=O)Nc2ccc(Br)cc2)c1)c1cnc(C(F)(F)F)[nH]1` [Compound 186], the EC50 was 20 to 100 µM and the Emax was 200 to 300%.
